The experiment deals with subjects with PAD. The note with it: oral BID for 10 weeks vs placebo. How it is done: Quality of life was measured by two questionnaires: WIQ and RAND 36. The two questionnaires were administered in the same sequence: WIQ first, followed by the RAND 36. The WIQ was a disease-specific instrument that measures community-based walking. The questionnaire consisted of four subscales (pain severity, distance, speed, and stairs). The WIQ was verbally administered to the subject by the Investigator, or designee. The RAND 36 was an instrument that measured general health issues. Study staff directed subjects to complete the RAND 36 on their own. […] No family members or other individuals were allowed to answer questions or complete the questionnaire for the subject. All questionnaires were completed directly on the written source document pages. The study coordinator reviewed all questionnaires to ensure that there was only one response to each question, each question has been answered and any necessary corrections have been initialed and dated by the Investigator (or designee) or subject, accordingly.

For `O=NO` [sodium nitrite], the “WIQ assessment in walking distance” value is listed as “no change”, the WIQ stair climbing result is on record as “trend toward improvement” and the WIQ walking speed entry is given as “trend toward improvement”. In addition, the “RAND 36 quality of life assessment” value (sentence names the 40 mg group) was “trend toward improvement”.

The record behind these values is patent US9561249B2, “Pharmaceutical formulations of nitrite and uses thereof” (TheraVasc Inc., priority 2013, dated 2017).
